The values that follow come from patent US20190010461A1, “HUMAN PLURIPOTENT STEM CELL-BASED SCREENING FOR SMOOTH MUSCLE CELL DIFFERENTIATION AND DISEASE” (Wisconsin Alumni Research Foundation, priority 2017, published 2019).

The structures appear in SMILES notation. Where a name gives a salt, the structure may show the parent alone.

The test system of the first data set is Human pluripotent stem cell cells (H1). Kind of data set: Mesoderm differentiation of H1 cells in E8BAC medium. It counts as cell-based. To be noted: CHIR99021 increased to 3 μM (from 1 μM). The procedure: The cells reached 80-90% confluency two days later. At the day of the differentiation, ES cells were dissociated by […] (Invitrogen) for 3-5 min at 37 ° C. The cells were plated on a […]-coated plate at 1:4 ratios (1×10^5 cells/cm2). […] An increased CHIR99021 concentration of 3 μM decreased cell proliferation at 36 hours but increased MYH11 expression. At 36 hours, the cells were passaged and seeded on a new […]-coated plate (1.6×10^4 cells/cm2). The low cell density is critical for the differentiation. […] […] (E6 medium+5 μM RESV) medium supplemented with RepSox (25 μM), was then used to further mature SMCs from day 12 to 24. Cells were split (1×10^5 cells/cm2) at day 16 and further differentiated until day 24. The cells can be cryopreserved at day 16 or day 24. […] From day 0-4: medium was changed every day. From day 2-24: medium was changed every other day. For day 1 and day 8-24, 1.5×volumes of medium, compared to the normal volume used in the well, were used.
For `Cc1c[nH]c(-c2cnc(NCCNc3ccc(C#N)cn3)nc2-c2ccc(Cl)cc2Cl)n1` [CHIR99021], the MYH11 expression result is on record as “increased” and the “cell proliferation at 36 hours” value was “decreased”.

A further data set has as its system intimal hyperplasia.
Test: not given
Conditions: DeRose 1999; Gulkarov 2009; Sawada 2000; cited from earlier work.
Take `C[C@@H](N)[C@H]1CC[C@H](C(=O)Nc2ccncc2)CC1` [Y27632]: the “inhibition of intimal hyperplasia in previous studies” value (from here on “inhibition of intimal hyperplasia”) is reported as “inhibit intimal hyperplasia”.

With `CC1=C(/C=C/C(C)=C/C=C/C(C)=C/C(=O)O)C(C)(C)CCC1` [retinoic acid, All-Trans Retinoic Acid], the “inhibition of intimal hyperplasia” value is “inhibit intimal hyperplasia”. For the compound `CCO.N#CC(=C(/N)Sc1ccccc1N)/C(C#N)=C(\N)Sc1ccccc1N` [UO126, U0126-EtOH], the “inhibition of intimal hyperplasia” value was “inhibit intimal hyperplasia”.

The subject of a further data set is MYH11-Tom+ cells. Nature of the data set: Flow cytometric analysis of MYH11-Tom+ cells in SMC differentiation. It counts as cell-based, human. Conditions: with RepSox 25 μM; DAPT 20 μM, DBZ 10 μM, RO04929097 10 μM; day 10-16. Here is the method: Data are represented as mean±standard deviation (SD). […] Scale bar=1 mm. […] Scale bar=50 μm. […] Data are represented as mean±SD. Student's t-test, *: P<0.05, n=3.
FIGS. 7A-7G show the target of RepSox. […] Cells were treated with RepSox (25 μM) or SiRNA. […] Cells were treated with RepSox (25 μM) or SiRNA. […] During the smooth muscle cells differentiation, cells were treated with or without RepSox from day 10-11. […] During the smooth muscle cells differentiation, cells were treated with RepSox for 1 or 20 hours at day 12. […] Cells were treated with RepSox and non-targeting control (NT)/SiRNA at day 10. The RNA was isolated at day 14.
Optimized smooth muscle cell differentiation—Human pluripotent stem cell cells (H1) were cultured in E8 medium on a […]™-coated plate. To achieve the best differentiation results, ES cells were split using EDTA at 1:4 ratios two days before the differentiation. The cells reached 80-90% confluency two days later. At the day of the differentiation, ES cells were dissociated by ACCUTASE™ (Invitrogen) for 3-5 min at 37 ° C. The cells were plated on a […]™-coated plate at 1:4 ratios (1×10^5 cells/cm2). […] An increased CHIR99021 concentration of 3 μM decreased cell proliferation at 36 hours but increased MYH11 expression. At 36 hours, the cells were passaged and seeded on a new […]™-coated plate (1.6×10^4 cells/cm2). The low cell density is critical for the differentiation. A cell density of 1.0-4.0×10^4 cells/cm2 for different cell lines can be tested, such that 100% cell confluence will be achieved at day 6, which gives rise to the best differentiation efficiency. The cells were treated with E6T medium (E8 medium minus FGF2 but still containing 1.7 ng/ml TGF-β1) for 18 hours to induce the transient and medium level expression of MEOX1. E5F medium (E8 medium minus insulin and TGF-β1, but still containing 100 ng/ml FGF2) was used to suppress MEOX1 expression for another 5 days (days 3-8). Next, the cells were treated with E6FVR medium (E6 medium with 100 ng/ml FGF2, 50 ng/ml VEGFA, and 5 μM RESV, a NOTCH agonist) to induce SMC progenitors from day 8-12. E6R (E6 medium+5 μM RESV) medium supplemented with RepSox (25 μM), was then used to further mature SMCs from day 12 to 24. Cells were split (1×10^5 cells/cm2) at day 16 and further differentiated until day 24. The cells can be cryopreserved at day 16 or day 24. For P-SMCs, T-SMCs, and PT-SMCs, RepSox was replaced by PDGF-BB (10 ng/ml), TGF-β1 (1.7 ng/ml), or combination of PDGF-BB and TGF-β1, respectively, from day 12 to 24. From day 0-4: medium was changed every day. From day 2-24: medium was changed every other day. For day 1 and day 8-24, 1.5×volumes of medium, compared to the normal volume used in the well, were used. […]
For `C[C@H](NC(=O)Cc1cc(F)cc(F)c1)C(=O)N[C@H](C(=O)OC(C)(C)C)c1ccccc1` [DAPT], the “effect on RepSox improvement of MYH11-Tom+ cell differentiation” value is reported as “abolished”.

For `CC(C)(C(=O)NCC(F)(F)C(F)(F)F)C(=O)N[C@@H]1C(=O)Nc2ccccc2-c2ccccc21` [R04929097], the “effect on RepSox improvement of MYH11-Tom+ cell differentiation” value is on record as “abolished”. Still for that read-out and setting: under `C[C@H](NC(=O)Cc1cc(F)cc(F)c1)C(=O)N[C@@H]1C(=O)N(C)c2ccccc2-c2ccccc21` [DBZ] stands “abolished”.

The test system of the next data set is endothelium repair.
Test: not given
To be noted: Prasad 2005; Zheng 2014; cited from earlier work.
For `CO[C@H]1C[C@@H]2CC[C@@H](C)[C@@](O)(O2)C(=O)C(=O)N2CCCC[C@H]2C(=O)O[C@H]([C@H](C)C[C@@H]2CC[C@@H](O)[C@H](OC)C2)CC(=O)[C@H](C)/C=C(\C)[C@@H](O)[C@@H](OC)C(=O)[C@H](C)C[C@H](C)/C=C/C=C/C=C/1C` [rapamycin], the “effect on endothelium repair” value was “suppressed”.

In another data set the test system is MYH11 promoter-driven luciferase activity. Nature of the data set: High-throughput screening, MYH11-Nluc-2A-Tom reporter human ES cell line, luciferase assay. Conditions: small molecules added day 4-14; selected when normalized reads > average+3×STDEV. In kind it is cell-based. Here is the method: FIGS. 1A-1C depict a schematic of high-throughput screening. […] The cells were passaged at day 4 and seeded on the 96-well plate for screening (2×10^6 cells/plate). After the reporter cell line was differentiated into mesoderm, small molecules were added to the cells from day 4 to day 14. FIG. 1B depicts the results of the screening in two batches. The luciferase assay results of individual small molecules were normalized to the average reads of all samples for each batch. The small molecules were selected for further analysis when the normalized reads were greater than “average+3×STDEV”. FIG. 1C depicts optimizing the concentration of the selected small molecules.
The cells were treated with 50 ng/ml FGF2 and 20 ng/ml BMP4 for another two days. The cells were passaged at day 4 and seeded on the 96-well plate for screening (2×10^6 cells/plate). The compounds were added from day 4-14. The Luciferase substrate (1000× dilution) (Nano-Glo Luciferase Assay system, Promega) was added to the medium for 15 min and luminescence was measured. An increase in luminescence indicates increased MYH11 expression, which is an indicator of the contractile smooth muscle cell phenotype. The Thomson custom stem cell Modulator 1, GSK-kinase inhibitor library, SellekChem Kinase inhibitor library, Analyticon NATx library, Prestwick Chemical Library, GlaxoSmithKline Protein Kinase Inhibitors, and part of Enamine Representative Diversity library were used for screening.
High-throughput screening directs contractile smooth muscle cell differentiation—The construction of the MYH11-NLuc-tdTomato human ES cell reporter line generated by CRISPR/Cas9 technology is described in FIGS. 6A-6H. The reporter cell line was differentiated into mesoderm in E8BAC medium (Zhang et al., 2017) for two days and treated with FGF2 and BMP4 to further mature mesoderm for another two days. The cells were then passaged into a 96-well plate and exposed to small molecules for 10 days using a customized robotic workstation (FIG. 1A). The workstation was designed through collaboration with TECAN, which enables us to perform the automatic high-throughput screening at specific time point and in long-term. The medium were changed every other day and the small molecules were added during the feeding. […] We then validated these hits and optimized their concentration.
On to `CNC(=O)c1cc(Oc2ccc(NC(=O)Nc3ccc(Cl)c(C(F)(F)F)c3)cc2)ccn1` [sorafenib, Sorafenib (Nexavar)], for which the “promotes MYH11+ SMC differentiation (increased MYH11 promoter-driven luciferase activity)” value is on record as “promotes MYH11^+ SMC differentiation”. Regarding `Cc1ccc(NC(=O)c2ccc(CN3CCN(C)CC3)cc2)cc1Nc1nccc(-c2cccnc2)n1` [imatinib, Imatinib Mesylate], the “promotes MYH11+ SMC differentiation (increased MYH11 promoter-driven luciferase activity)” value is listed as “promotes MYH11^+ SMC differentiation”.

Turning to `CC(=O)[N-]S(=O)(=O)c1ccc(N)cc1.O.[Na+]` [sulfacetamide sodic hydrate, Sulfacetamide sodic hydrate], the “promotes MYH11+ SMC differentiation (increased MYH11 promoter-driven luciferase activity)” value is reported as “promotes MYH11^+ SMC differentiation”. Same read-out and setting: under `C[C@@H](N)[C@H]1CC[C@H](C(=O)Nc2ccncc2)CC1` [Y27632] stands “promotes MYH11^+ SMC differentiation”. Still for that read-out and setting: under `O=C(Nc1ccc(OC(F)(F)F)cc1)c1sccc1NCc1ccnc2ccccc12` [OSI-930] stands “promotes MYH11^+ SMC differentiation”. Regarding `CC1=C(/C=C/C(C)=C/C=C/C(C)=C/C(=O)O)C(C)(C)CCC1` [retinoic acid, All-Trans Retinoic Acid], the “promotes MYH11+ SMC differentiation (increased MYH11 promoter-driven luciferase activity)” value is “promotes MYH11^+ SMC differentiation”. Same read-out and setting: as for `COC(=O)Nc1nc2ccc(Sc3ccc(NC(=O)Nc4cc(C(F)(F)F)ccc4F)cc3)cc2[nH]1` [GSK607049C], the entry is “promotes MYH11^+ SMC differentiation”. Still for that read-out and setting: as for `NS(=O)(=O)c1cc2c(cc1C(F)(F)F)NCNS2(=O)=O` [hydroflumethiazide, Hydroflumethiazide], the entry is “promotes MYH11^+ SMC differentiation”; as for `CCO.N#CC(=C(/N)Sc1ccccc1N)/C(C#N)=C(\N)Sc1ccccc1N` [UO126, U0126-EtOH], “promotes MYH11^+ SMC differentiation”.

With `N[C@@H](CC(=O)N1CCn2c(nnc2C(F)(F)F)C1)Cc1cc(F)c(F)cc1F` [sitagliptin, Sitagliptin], the “promotes MYH11+ SMC differentiation (increased MYH11 promoter-driven luciferase activity)” value is “promotes MYH11^+ SMC differentiation”. Take `CNC(=O)c1cc(Oc2ccc(NC(=O)Nc3cc(C(C)(C)C)nn3-c3ccc4ncccc4c3)c(F)c2)ccn1` [DCC-2036, DCC-2036 (Rebastinib)]: the “promotes MYH11+ SMC differentiation (increased MYH11 promoter-driven luciferase activity)” value is on record as “promotes MYH11^+ SMC differentiation”. On the same count and under the same terms, as for `CN(C)C(=O)OC1CNC(C#Cc2cc3ncnc(Nc4ccc(OCc5cccc(F)c5)c(Cl)c4)c3s2)C1` (stereo not shown) [GSK182497A], the entry is “promotes MYH11^+ SMC differentiation”; as for `CC#CCn1c(N2CCC[C@@H](N)C2)nc2c1c(=O)n(Cc1nc(C)c3ccccc3n1)c(=O)n2C` [BI-1356], “promotes MYH11^+ SMC differentiation”. Take `Nc1ccc(S(=O)(=O)Nc2ccnn2-c2ccccc2)cc1` [sulfaphenazole, Sulfaphenazole]: the “promotes MYH11+ SMC differentiation (increased MYH11 promoter-driven luciferase activity)” value is given as “promotes MYH11^+ SMC differentiation”.

Take `CC(C(=O)O)c1ccc(-c2ccccc2)c(F)c1` (stereo not shown) [flurbiprofen, Flurbiprofen]: the “promotes MYH11+ SMC differentiation (increased MYH11 promoter-driven luciferase activity)” value is recorded as “promotes MYH11^+ SMC differentiation”. Same read-out and setting: under `NC(=O)c1sc(-n2cnc3ccccc32)cc1OCc1ccccc1Br` [GSK1023156A] stands “promotes MYH11^+ SMC differentiation”.

With `N[C@@H]1C[C@H]1c1ccccc1` [tranylcypromine hydrochloride, Tranylcypromine hydrochloride], the “promotes MYH11+ SMC differentiation (increased MYH11 promoter-driven luciferase activity)” value is recorded as “promotes MYH11^+ SMC differentiation”. In the case of `O=C(O)C(Cc1c[nH]c2ccccc12)N1C(=O)c2ccccc2C1=O` (stereo not shown) [RG108], the “promotes MYH11+ SMC differentiation (increased MYH11 promoter-driven luciferase activity)” value is on record as “promotes MYH11^+ SMC differentiation”. For the compound `COc1cc2ncnc(Nc3ccc4c(cnn4Cc4ccccc4)c3)c2cc1OC` [GSK282449A], the “promotes MYH11+ SMC differentiation (increased MYH11 promoter-driven luciferase activity)” value was “promotes MYH11^+ SMC differentiation”.
